Experiments:
[1] = Catalase activity, hydrogen peroxide consumed at 20 minutes; type: biochemical; details: over 20 minutes; 10 μM compound, 100 μM hydrogen peroxide, 40 mM sodium phosphate pH 7.4
Experimental: Catalase activity was measured by incubating the sample compound with hydrogen peroxide and determining the amount of hydrogen peroxide remaining after a period of time using a colorimetric peroxidase-coupled assay method. 10 μM sample compound and 100 μM hydrogen peroxide in 40 mM sodium phosphate pH 7.4 were incubated together at ambient temperature in a multi-well plate. After the desired reaction period had elapsed, 20 μl of peroxidase/ABTS reagent was added (peroxidase/ABTS reagent contained 100 μl of 50 mM Na phosphate, pH 7.4, 1 mg horseradish peroxidase (1310 U/mg) and […]). After five minutes, absorbance at 750 nm was determined. The amount of hydrogen peroxide remaining was calculated based on a standard curve. To compare rates of catalase reaction, the amount of hydrogen peroxide consumed at 20 minutes was determined (See table III). It was also of interest to determine the total number of turnovers completed by the compound before inactivation by hydrogen peroxide. This was assayed under similar conditions, except that 15.8 μM compound was combined with 1582 μM hydrogen peroxide in 5 mM Na phosphate, pH 7.4. Reactions were allowed to proceed to completion and then the amount of hydrogen peroxide remaining was determined as described above. Results showing […] in the turnover assay (nmoles hydrogen peroxide per nmole compound) are also shown in Table III.

[2] = tested on: ΦX 174 DNA Plasmid (Form I); experiment: Cleavage of ΦX 174 DNA plasmid (form I), activation with H2O2; type: biochemical, phage ΦX 174; details: for S (single-strand breaks per DNA molecule) / form % I / form % II / form % III: DNA 3.5 nM, H2O2 1 mM
Excerpt: (§1) The DNA cleavage activity was quantified in terms of number of single-strand breaks per DNA molecule according to the equation […], Io=% form I (supercoiled DNA) in the DNA control, and I=% form I in the experiment (see Bernadou et al, Biochemistry, 28: 7268-7275, (1989)). This assay is very sensitive and is able to detect very low levels of DNA activity. S values less than S=1.0 are indicative of very low DNA cleavage activity when the compounds are at a concentration of equal to or less than 1000 nM and KHSO5 is present at a concentration of equal to or less than 100 μM.
(§2) ΦX 174 DNA digestion conditions for standard experiments were as follows: commercially available DNA was diluted to 50 μg/mL in phosphate buffer (10 mM, pH 7.5). The reaction involved 5 μL of ΦX 174 DNA (50 μg/mL, 74.8 μM in base pairs), 5 μL of 40 mM phosphate buffer, pH 7.5 with 400 mM NaCl, 5 μL of metalloporphyrin in double-distilled water or 5 μL of iron-bleomycin complex in double-distilled water, and 5 μL of KHSO5 or 5 μL of H2O2 or 5 μL of ascorbate in double-distilled water. Preincubation of DNA and metalloporphyrins or iron-bleomycin complex was performed for about 15 min. The digestion time in the presence of KHSO5 was 10 min, of H2O2 was 30 min and of ascorbate was 30 min at 20° C. DNA cleavage was monitored by agarose gel electrophoresis. Reactions with KHSO5 were first quenched by 2 μL of 100 mM Hepes buffer, pH 8. In all cases, reactions were quenched by 5 μL of a stopping reagent. The stopping reagent consisted of 250 mM Hepes buffer, pH 7.4, containing 75% glycerol and 0.05% bromophenol blue. Reaction mixtures were then run in 0.8% agarose slab horizontal gel containing ethidium bromide […], at constant current (25 mA for 15h), in 89 mM Tris-borate buffer and 2.5 mM EDTA pH 8.3. Bands were located by WV light (254 nm), photographed, and quantitated by microdensitometry. The correction coefficient 1.47±0.30 was used for decreased stainability of form I DNA vs form II DNA and form III DNA.

[3] = tested on: CBA/J female mice, oxazolone-induced inflammatory ear edema; experiment: Delayed type hypersensitivity: oxazolone-induced ear edema; type: in vivo
Excerpt: CBA/J female mice (Jackson Labs, Bar Harbor, ME) 7 weeks of age were pre-sensitized with 3% oxazolone (Sigma Chemical Co., St. Louis, Mo.) in 99.9% acetone, on the abdomen. After 8 days, the mice were challenged with 1.2% oxazolone topically on one ear to induce an inflammatory edema. Either Structural Formula V, Structural Formula IV at a dose of 7 nmoles/ear each, or ethanol, i.e. vehicle control (eight mice per study group), was applied topically to the ear immediately after the oxazolone challenge. Ear edema was measured by comparing the tissue water content (the wet weight minus the dry weight) of the challenged ear to that of the control ear. The percent edema (% water in the right ear-left ear) in the vehicle control was 6.5% and 2.1% and 3.9% for Structural Formula V and Structural Formula IV, respectively at a dose of 7 nmoles/ear.

[4] = tested on: ΦX 174 DNA Plasmid (Form I); experiment: Cleavage of ΦX 174 DNA plasmid (form I), compound alone or activated with KHSO5; type: biochemical, phage ΦX 174; details: for S (single-strand breaks per DNA molecule) / form % I / form % II / form % III: DNA 3.5 nM
Excerpt: as §1, §2

[5] = tested on: ΦX 174 DNA Plasmid (Form I); experiment: Cleavage of ΦX 174 DNA plasmid (form I), activation with ascorbate in the presence of air; type: biochemical, phage ΦX 174; details: DNA 3.5 nM, Asc. 1 mM
Excerpt: as §1, §2

Compound: CC[NH+](CC)CCNS(=O)(=O)c1c(C)cc(C)c(C2=C3C=CC4=[N+]3[Fe-]35[n]6c2ccc6C(c2c(C)cc(C)c(S(=O)(=O)NCC[NH+](CC)CC)c2C)=C2C=CC(=[N+]23)C(c2c(C)cc(C)c(S(=O)(=O)NCC[NH+](CC)CC)c2C)=c2ccc([n]25)=C4c2c(C)cc(C)c(S(=O)(=O)NCC[NH+](CC)CC)c2C)c1C.[Cl-].[Cl-].[Cl-].[Cl-].[Cl-] [Structural Formula V, meso-tetrakis[3-(N-(2-(N,N-diethylammonio)ethyl)aminosulfonyl)-2,4,6-trimethylphenyl]porphyrinato diaqua-iron (III) pentachloride]
- CATALASE* Rate at 20 mins. [1]: 6.4 nmole H2O2/nmole Structural Formula compound
- S (single-strand breaks per DNA molecule) ([2]; compound 10 nM): 0.01 SSBs
- form % I ([2]; compound 10 nM): 94%
- form % II ([2]; compound 10 nM): 6%
- form % III ([2]; compound 10 nM): 0%
- S (single-strand breaks per DNA molecule) ([2]; compound 100 nM): 0 SSBs
- form % I ([2]; compound 100 nM): 95%
- form % II ([2]; compound 100 nM): 5%
- form % III ([2]; compound 100 nM): 0%
- S (single-strand breaks per DNA molecule) ([2]; compound 1 μM): 0.16 SSBs
- form % I ([2]; compound 1 μM): 84%
- form % II ([2]; compound 1 μM): 16%
- form % III ([2]; compound 1 μM): 0%
- DNA cleavage activity in H2O2 medium ([2]; H2O2 medium): does not exhibit significant DNA cleavage activity
- effect on edema compared to vehicle ([3]; 7 nmoles/ear topically): effective in reducing the percentage of edema
- percent edema (% water in the right ear-left ear) ([3]; 7 nmoles/ear topically immediately after oxazolone challenge, vehicle control 6.5%): 2.1%
- S (single-strand breaks per DNA molecule) ([4]; compound 10 nM, KHSO5 100 μM): 0.01 SSBs
- form % I ([4]; compound 10 nM, KHSO5 100 μM): 91%
- form % II ([4]; compound 10 nM, KHSO5 100 μM): 9%
- form % III ([4]; compound 10 nM, KHSO5 100 μM): 0%
- S (single-strand breaks per DNA molecule) ([4]; compound 10 nM, without KHSO5): 0 SSBs
- form % I ([4]; compound 10 nM, without KHSO5): 92%
- form % II ([4]; compound 10 nM, without KHSO5): 8%
- form % III ([4]; compound 10 nM, without KHSO5): 0%
- S (single-strand breaks per DNA molecule) ([4]; compound 100 nM, KHSO5 100 μM): 0.03 SSBs
- form % I ([4]; compound 100 nM, KHSO5 100 μM): 90%
- form % II ([4]; compound 100 nM, KHSO5 100 μM): 10%
- form % III ([4]; compound 100 nM, KHSO5 100 μM): 0%
- S (single-strand breaks per DNA molecule) ([4]; compound 100 nM, without KHSO5): 0 SSBs
- form % I ([4]; compound 100 nM, without KHSO5): 92%
- form % II ([4]; compound 100 nM, without KHSO5): 8%
- form % III ([4]; compound 100 nM, without KHSO5): 0%
- S (single-strand breaks per DNA molecule) ([4]; compound 1 μM, KHSO5 100 μM): 0.07 SSBs
- form % I ([4]; compound 1 μM, KHSO5 100 μM): 87%
- form % II ([4]; compound 1 μM, KHSO5 100 μM): 13%
- form % III ([4]; compound 1 μM, KHSO5 100 μM): 0%
- S (single-strand breaks per DNA molecule) ([4]; compound 1 μM, without KHSO5): 0.07 SSBs
- form % I ([4]; compound 1 μM, without KHSO5): 87%
- form % II ([4]; compound 1 μM, without KHSO5): 13%
- form % III ([4]; compound 1 μM, without KHSO5): 0%
- DNA cleavage activity in oxidative medium ([4]; oxidative medium (KHSO5)): do not exhibit any significant DNA cleavage activity
- S (single-strand breaks per DNA molecule) ([5]; compound 10 nM): 0.11 SSBs
- form % I ([5]; compound 10 nM): 87%
- form % II ([5]; compound 10 nM): 13%
- form % III ([5]; compound 10 nM): 0%
- S (single-strand breaks per DNA molecule) ([5]; compound 100 nM): 0.34 SSBs
- form % I ([5]; compound 100 nM): 75%
- form % II ([5]; compound 100 nM): 25%
- form % III ([5]; compound 100 nM): 0%
- S (single-strand breaks per DNA molecule) ([5]; compound 1 μM): 2.76 SSBs
- form % I ([5]; compound 1 μM): 29%
- form % II ([5]; compound 1 μM): 71%
- form % III ([5]; compound 1 μM): 0%

Source: US6403788B1, “Non-genotoxic metalloporphyrins as synthetic catalytic scavengers of reactive oxygen species” (Eukarion, Inc., priority 2000, dated 2002)
